Results from patent US20100022534A1, “2-BENZIMIDAZOLYL-6-MORPHOLINO-4- (AZETIDINE, PYRROLIDINE, PIPERIDINE OR AZEPINE) PYRIMIDINE DERIVATIVES AS PI3K AND MTOR INHIBITORS FOR THE TREATMENT OF PROLIFERATIVE DISORDERS” (AstraZeneca, priority 2006, published 2010).
pIC50: −log10 of the molar value.

Columns and labels:
p110α Type Ia human PI3K = molecular target: T1, p110α Type Ia human PI3K (Homo sapiens, UniProt P42336); experiment: In vitro PI3K enzyme assay (AlphaScreen), Test (a); assay type: biochemical; conditions: read-out: IC50 versus p110α Type Ia human PI3K
T1 construct: full length DNA of each of the p110α, p110β and p110δ Type Ia human PI3K p110 isoforms; 6-His; made in house
Source text: (a) In Vitro PI3K Enzyme Assay
The assay used AlphaScreen technology (Gray et al., Analytical Biochemistry, 2003, 313: 234-245) to determine the ability of test compounds to inhibit phosphorylation by recombinant Type I PI3K enzymes of the lipid PI(4,5)P2.
DNA fragments encoding human PI3K catalytic and regulatory subunits were isolated from cDNA libraries using standard molecular biology and PCR cloning techniques. The selected DNA fragments were used to generate baculovirus expression vectors. In particular, full length DNA of each of the p110α, p110β and p110δ Type Ia human PI3K p110 isoforms (EMBL Accession Nos. HSU79143, S67334, Y10055 for p110α, p110β and p110δ respectively) were sub-cloned into a pDEST10 vector (Invitrogen Limited, Fountain Drive, Paisley, UK). The vector is a Gateway-adapted version of Fastbac1 containing a 6-His epitope tag. […]
Biotinylated-DiC8-PI(3,4,5)P3 (50 nM; Cell Signals Inc., Catalogue No. 107), recombinant purified GST-Grp1 PH protein (2.5 μM) and AlphaScreen Anti-GST donor and acceptor beads (100 ng; Packard Bioscience Limited, Station Road, Pangbourne, Berkshire, UK, Catalogue No. 6760603M) were added and the assay plates were left for about 5 to 20 hours at room temperature in the dark. The resultant signals arising from laser light excitation at 680 nm were read using a Packard AlphaQuest instrument. […]

[1] = test system: phosphorylation of Serine 473 in Akt; experiment: In vitro phospho-Ser473 Akt assay in MDA-MB-468 cells, Test (c); assay type: cell-based; conditions: Homo sapiens, read-out: IC50, inhibition of phosphorylation of Serine 473 in Akt
Description: (c) In Vitro Phospho-Ser473 Akt Assay
This assay determines the ability of test compounds to inhibit phosphorylation of Serine 473 in Akt as assessed using Acumen Explorer technology (TTP LabTech Limited, Royston, Herts, SG8 6EE, UK), a plate reader that can be used to rapidly quantitate features of images generated by laser-scanning.
A MDA-MB-468 human breast adenocarcinoma cell line (LGC Promochem, Teddington, Middlesex, UK, Catalogue No. HTB-132) was routinely maintained at 37° C. with 5% CO2 up to a confluency of 70-90% in DMEM containing 10% FCS and 1% L-glutamine.
For the assay, the cells were detached from the culture flask using ‘Accutase’ (Innovative Cell Technologies Inc., San Diego, Calif., USA; Catalogue No. AT104) using standard tissue culture methods and resuspended in media to give 5.5×10^4 cells per ml. Aliquots (90 μl) were seeded into each of the inner 60 wells of a black ‘Costar’ 96-well plate (Corning Inc., NY, USA; Catalogue No. 3904) to give a density of ˜5000 cells per well. Aliquots (90 μl) of culture media were placed in the outer wells to prevent edge effects. [An alternative cell handling procedure involved the maintenance of the cells in a ‘SelecT’ robotic device (The Automation Partnership, Royston, Herts SG8 5WY, UK). Cells were resuspended in media to give 5×10^4 cells per ml. […]

T1 sequence (P42336 whole entry, canonical isoform): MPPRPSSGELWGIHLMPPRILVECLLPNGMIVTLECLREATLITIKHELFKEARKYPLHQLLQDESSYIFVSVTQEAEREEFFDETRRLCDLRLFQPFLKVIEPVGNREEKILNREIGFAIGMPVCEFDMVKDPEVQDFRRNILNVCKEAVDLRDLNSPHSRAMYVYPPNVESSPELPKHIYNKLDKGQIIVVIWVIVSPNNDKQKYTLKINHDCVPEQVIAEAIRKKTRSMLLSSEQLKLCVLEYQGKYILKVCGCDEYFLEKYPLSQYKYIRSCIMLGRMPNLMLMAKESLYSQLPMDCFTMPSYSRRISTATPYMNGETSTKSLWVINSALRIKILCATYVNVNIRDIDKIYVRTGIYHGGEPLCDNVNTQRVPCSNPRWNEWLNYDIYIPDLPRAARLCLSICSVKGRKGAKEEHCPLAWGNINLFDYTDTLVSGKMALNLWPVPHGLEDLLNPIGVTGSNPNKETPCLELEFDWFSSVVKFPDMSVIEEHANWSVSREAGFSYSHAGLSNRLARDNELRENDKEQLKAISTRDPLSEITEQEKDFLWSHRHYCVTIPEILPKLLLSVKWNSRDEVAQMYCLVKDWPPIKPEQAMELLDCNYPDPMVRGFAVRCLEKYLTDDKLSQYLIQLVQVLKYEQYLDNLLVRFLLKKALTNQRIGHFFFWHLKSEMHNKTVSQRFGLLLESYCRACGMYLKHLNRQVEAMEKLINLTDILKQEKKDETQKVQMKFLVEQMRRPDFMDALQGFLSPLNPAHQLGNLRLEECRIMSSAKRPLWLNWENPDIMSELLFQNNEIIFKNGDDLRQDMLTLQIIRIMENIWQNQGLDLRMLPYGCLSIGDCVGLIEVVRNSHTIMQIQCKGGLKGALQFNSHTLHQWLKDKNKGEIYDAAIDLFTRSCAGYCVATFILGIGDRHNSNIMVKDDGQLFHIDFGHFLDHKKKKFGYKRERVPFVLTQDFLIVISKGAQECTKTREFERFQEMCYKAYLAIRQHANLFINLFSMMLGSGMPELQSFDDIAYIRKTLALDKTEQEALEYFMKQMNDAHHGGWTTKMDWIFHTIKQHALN
T1 sequence (P27986 whole entry partner, canonical isoform): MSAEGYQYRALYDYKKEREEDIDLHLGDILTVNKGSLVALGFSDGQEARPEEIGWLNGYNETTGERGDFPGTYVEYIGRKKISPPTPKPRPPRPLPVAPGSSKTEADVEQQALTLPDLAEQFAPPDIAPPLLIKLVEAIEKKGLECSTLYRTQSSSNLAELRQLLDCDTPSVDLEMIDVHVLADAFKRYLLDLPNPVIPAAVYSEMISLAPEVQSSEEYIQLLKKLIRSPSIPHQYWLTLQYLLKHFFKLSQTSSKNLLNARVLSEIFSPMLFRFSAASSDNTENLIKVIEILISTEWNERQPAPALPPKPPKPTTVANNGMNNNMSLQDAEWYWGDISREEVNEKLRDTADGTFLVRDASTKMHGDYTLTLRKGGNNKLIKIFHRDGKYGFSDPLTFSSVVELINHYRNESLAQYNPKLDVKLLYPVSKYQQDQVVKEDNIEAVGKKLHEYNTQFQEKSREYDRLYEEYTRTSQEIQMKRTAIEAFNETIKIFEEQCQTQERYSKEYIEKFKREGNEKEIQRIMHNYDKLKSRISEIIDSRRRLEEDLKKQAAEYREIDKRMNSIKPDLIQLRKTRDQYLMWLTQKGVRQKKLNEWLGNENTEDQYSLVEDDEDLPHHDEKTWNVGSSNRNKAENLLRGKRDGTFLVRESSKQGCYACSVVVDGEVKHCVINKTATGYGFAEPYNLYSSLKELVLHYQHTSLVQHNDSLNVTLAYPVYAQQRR

| pIC50 (p110α Type Ia human PI3K) | pIC50 [1] | SMILES |
| --- | --- | --- |
| ~6.70 | ~8.00 | NCCC1CCN(c2cc(N3CCOCC3)nc(-n3c(C(F)F)nc4ccccc43)n2)CC1 [Example 1, 4-[4-(2-aminoethyl)piperidin-1-yl]-2-(2-difluoromethylbenzimidazol-1-yl)-6-morpholinopyrimidine] |
| ~6.40 | ~7.00 | O=C(NC1CCN(c2cc(N3CCOCC3)nc(-n3c(C(F)F)nc4ccccc43)n2)CC1)[C@@H]1CCCN1 [Example 3, 2-(2-difluoromethylbenzimidazol-1-yl)-6-morpholino-4-(4-prolylaminopiperidin-1-yl)pyrimidine] |
